Results taken from US20120070449A1, “METHODS OF TREATING INFLAMMATION” (Yeda Research And Development Co. Ltd., priority 2009, published 2012).

Key:
CD151 [1] = experiment: CD151 cell surface expression on T cells (flow cytometry); assay type: cell-based, mouse; details: CCL2 1 ng/ml
Description: Freshly isolated T cells were pre-incubated in the presence or absence of CCL2 (1 ng/ml, PeproTech) for several time periods (see the results section below). After incubation the cells were double stained with anti-CD3 (Pharmagene) and anti-CD151 (Santa Cruz) and the secondary antibody alexa goat anti rabbit (Invitrogene) was used. Expression of the stained proteins was analyzed by flow cytometry.

CD151 [2] = experiment: CD151 mRNA expression in T cells (DNA chip array, RT-PCR, real-time PCR); assay type: cell-based, mouse
Description: (§1) 1×10^7 T cells from control C57BL/6 or CCR2−/− mice were suspended in 1 ml RPMI medium containing 10% (v/v) FCS. Next, 1 ng/ml of CCL2 (PeproTech) was added to half of the tubes (the other half was kept as a control), and the tubes were placed at 37° C. for different time periods (see the results section below). After incubation, the cells were washed and used for the different experiments.
Total RNA was isolated from cells using the Tri reagent kit (Molecular Research Center, Inc). Reverse transcription was carried out using Superscript II RT (Gibco-BRL) and the primers: […]
To obtain differential expression data of the T cells following CCL2 incubation, the differences between mRNA levels in this cell population were identified by screening mouse DNA chip arrays using the Affymatrix genechip expression analysis system (mouse 430 A2.0). The system consisted of two parameters: probe array and RNA target. Probe array included approximately 20,000 murine genes and ESTs. Each gene or EST was analyzed with approximately 20 pairs of specific, unique 25 mer-oligonucleotides probe. Each probe type was located in a specific area called probe cell. Each probe cell contained millions of copies of a given probe. All probe cells together made up the probe array (Affymetrix Genechip Expression Technical Manual). RNA from CCL2 treated T cells and from control T cells was converted to cDNA and then in vitro transcribed while labeled with biotin (see methods for RNA isolation and cells separation). The target RNA was hybridized to the probe array. The hybridized probe array was stained with streptavidin phycoerythrin conjugate and scanned by the GeneArray scanner. The amount of light emitted was proportional to the bound target at each location on the probe array. The two populations were compared according to the hybridization intensity in each cell.
mRNA levels of actin and CD151 were analyzed by quantitative real-time RT-PCR using a Light-Cycler instrument (Roche Diagnostics, Mannheim, Germany). […]

[3] = picomolar circulating CCL2; Flaishon et al. 2008, WO 2008/012796; cited from earlier work
LFA-1 = experiment: Laminar flow adhesion assay: LFA-1 mediated adhesion to ICAM-1 triggered by CCL21; assay type: cell-based; details: mouse T cells pre-treated, FIGS. 4G-J
Description: Purified ICAM-1-Fc (R&D Systems, Minneapolis, Minn.) were coated alone or with mouse CCL21 (R&D Systems) on polystyrene plates, as previously described [Grabovsky V et al. (2000) J Exp Med. 192, 495-506; Sigal A et al. (2000) J. Immunol. 165, 442-452]. The polystyrene plates were each assembled on the lower wall of the flow chamber as previously described [Feigelson S W et al. (2001) J Biol. Chem. 276, 13891-13901]. All flow experiments were conducted at 37° C.
Mouse T cells were purified and re-suspended in HBSS++ (HBSS, Mg^2+Ca^2+) with ICAM-1-Fc or mCCL2 for 1 hr. Cells were then perfused through the flow chamber at low shear stress (0.5-0.75 dyn/cm2) for 2 min. Tethers were defined as transient or rolling if cells attached briefly (less than 2 seconds) to the substrate, and as arrests if cells immediately arrested and remained stationary for at least 5 seconds of continuous flow. To assess adhesion strengthening, post arrest resistance to detachment over time was determined. Accumulated cells were subjected to a shear stress of 5 dyn/cm^2 for 10 minutes. At the indicated time points, the number of cells that remained bound was expressed relative to T cell population originally accumulated in the first 2 minutes of the assay.

β-catenin = experiment: Detection of β-catenin phosphorylation in T cells; assay type: cell-based, mouse; details: CCL2 1 ng/ml 10 minutes before activating anti-CD151 5 minutes, FIG. 4F
Description: 1×10^7 T cells were suspended in 1 ml RPMI medium containing 10% (v/v) FCS. The cells were stimulated with either 2 μg/ml anti-CD151 (Santa Cruz) or an isotype control antibody IgG rabbit anti mouse (ImmunoResearch Labs.inc). Thereafter, the cells were immediately placed at 37° C. for 5 minutes. Immediately after stimulation, the cells were fast frozen in liquid N2 and were lysed in lysis buffer containing: 25 mM Tris, pH 7.4; 2 mM Vanadate; 75 mM glycophosphate, pH 7.2; 2 mM EDTA; 2 mM EGTA; 10 mM NaPPi; and 0.5% NP-40, in the presence of the following protease inhibitors: 10 mg/ml Leupeptin; 10 mg/ml aprotinin; 10 mg/ml pepstatin; 10 mg/ml chymostatin (Roche); 1 mM PMSF (Sigma); and 20 mM N-etheyl-melamide (Sigma).
Protein G-Sepharose beads (GE Healthcare) were conjugated to Tyr (P) monoclonal antibody (Santa Cruz) for 2 hours at 4° C., followed by three washes in phosphate-buffered saline. Beads were added to the cell lysates and proteins were immunoprecipitated overnight. The protein G-bound material was washed three times with phosphate-buffered saline containing 0.1% SDS and 0.5% Nonidet P-40. Immunoprecipitates were separated by SDS-PAGE. The protein bands were transferred onto a nitrocellulose membrane and probed with anti β-cat (BD Transduction Laboratories) followed by horseradish peroxidase-conjugated anti-mouse IgG (Jackson ImmunoResearch Labs, West Grove, Pa.). […]

T cells = experiment: Cytoskeleton rearrangement: CCL21-induced actin polymerization (FITC-phalloidin, flow cytometry); assay type: cell-based, mouse
Description: T cells were pre-incubated in the presence or absence of CCL2 (1 ng/ml, PeproTech) for 1 hour and were then stimulated with CCL21 (SLC, 100 ng/ml, PeproTech). Cells were fixed by 3.7% formaldehyde solution (Merck) and cytoskeleton rearrangement was analyzed by flow cytometry following staining with fluorescein isothiocyanate (FITC)-phalloidin, as was previously described [Flaishon et al., J. Biol. Chem. (2001) 276: 46701-46706].
For CD151 activation leading to cytoskeletal rearrangement-T cells were pretreated with either 2 μg/ml of activating antibody specific for the extracellular domain of CD151 (Santa Cruz) or with an isotype control antibody IgG rabbit anti mouse (ImmunoResearch Labs.inc)/anti CUL1 (Santa Cruz) for 1 hour/20 hours.
For blocking CD151− T cells were pretreated for 1 hour with 10 μg/ml blocking anti-CD151 antibody (BD pharmingen) or with 10 μg/ml control antibody anti-IgG (ImmunoResearch Labs.inc)/anti KPL1 (Chemicon).
Next, a 100 ng/ml chemokine CCL21 (SLC, PeproTech) stimulation was carried out and the cells were fixed by 3.7% formaldehyde solution (Merck), permeabilized and stained with fluorescein isothiocyanate (FITC)-phalloidin, as was previously described [Flaishon et al., J. Biol. Chem. (2001) 276: 46701-46706]. Cytoskeleton rearrangement was analyzed by flow cytometry.
1×10^7 T cells were incubated in the presence or absence of CCL2 for 10 minutes, followed by stimulation with either activating anti-CD151 (Santa Cruz, 2 μg/ml) or an isotype control antibody IgG rabbit anti mouse (ImmunoResearch Labs.inc, 2 μg/ml) for 1 hour. The cells were then stimulated with CCL21 (100 ng/ml) and actin polymerization was analyzed.
Cells were fixed by 3.7% formaldehyde solution (Merck), and cytoskeleton rearrangement was analyzed by flow cytometry following staining with fluorescein isothiocyanate (FITC)-phalloidin, as was previously described [Flaishon et al. (2001), supra].

CD151/VLA4 complex = experiment: Co-immunoprecipitation of CD151 with β1 integrin (CD151/VLA4 complex); assay type: cell-based, mouse
Description: as §1
Stimulated frozen cells were lysed in lysis buffer containing: 25 mM Tris, pH 7.4; 2 mM Vanadate; 75 mM glycophosphate, pH 7.2; 2 mM EDTA; 2 mM EGTA; 10 mM NaPPi; and 0.5% NP-40, in the presence of the following protease inhibitors: 10 mg/ml Leupeptin; 10 mg/ml aprotinin; 10 mg/ml pepstatin; 10 mg/ml chymostatin (Roche); 1 mM PMSF (Sigma); and 20 mM N-etheyl-melamide (Sigma).
Protein G-Sepharose beads (GE Healthcare) were conjugated to Tyr (P) monoclonal antibody (Santa Cruz) or to anti-CD151 (Santa Cruz) for 2 hours at 4° C. followed by three washes in phosphate-buffered saline. Beads were added to the cell lysates and proteins were immunoprecipitated overnight. The protein G-bound material was washed three times with phosphate-buffered saline containing 0.1% SDS and 0.5% Nonidet P-40. Immunoprecipitates were separated by SDS-PAGE. […]

T lymphocyte = details: picomolar levels of CCL2; Flaishon et al. 2008, WO 2008/012796; cited from earlier work

CCL2: chemokine, also called Macrophage Chemotactic Protein-1 or MCP-1 (PeproTech), used at picomolar levels, 1 ng/ml
CD151 cell surface expression (CD151 [1]; CCR2-/- T cells, FIG. 1G): no change was detected | CD151 cell surface expression (CD151 [1]; control T cells, different time periods, FIGS. 1E-F): downregulated CD151 cell surface expression levels | transcription of CD151 (RT-PCR) (CD151 [2]; CCR2-/- T cells, pM CCL2, FIG. 1D): no inhibition was observed | differential gene expression of CD151 (DNA chip array) (CD151 [2]; T cells incubated 2 hours with CCL2): downregulated | transcription of CD151 (RT-PCR) (CD151 [2]; control naive T cells, pM CCL2, 1, 2 or 4 hours, FIG. 1C): downregulated following 2 and 4 hour incubations | progression of asthma and adjuvant arthritis [3]: attenuated progression of both asthma and adjuvant arthritis | adhesion strengthening after arrest (resistance to detachment) (LFA-1; continuous/high shear stress): failed to remain firmly adhered | LFA-1 activation by surface bound CCL21 (arrest/accumulation on ICAM-1) (LFA-1; low shear stress): minor effect | β-catenin phosphorylation induced by CD151 activation (β-catenin): completely abolished | actin polymerization elevation induced by CD151 activation (T cells; CCR2-/- T cells, CCL2 10 minutes before activating anti-CD151, FIG. 4D): not apparent | CCL21-induced actin polymerization (T cells; control T cells, CCL2 1 ng/ml (pM levels) 1 hour, then CCL21 100 ng/ml, FIGS. 1A-B): suppressed actin polymerization | actin polymerization elevation induced by CD151 activation (T cells; control T cells, longer CCL2 incubation (20 hours), FIG. 4E): maintained | actin polymerization elevation induced by CD151 activation (T cells; control T cells, pM CCL2 10 minutes before activating anti-CD151 1 hour, then CCL21, FIG. 4C): completely abolished | CD151/VLA4 complex (β1 integrin pulled down with CD151) (CD151/VLA4 complex; CCR2-/- T cells incubated with CCL2, FIG. 4B): no effect | CD151/VLA4 complex (β1 integrin pulled down with CD151) (CD151/VLA4 complex; control T cells incubated with CCL2, several time periods, FIG. 4A): disappearance of the CD151/VLA4 complex | T lymphocyte homing to peripheral lymph nodes (T lymphocyte): inhibit T lymphocyte homing to peripheral lymph nodes
